19 compounds from patent publication US20250205344A1, “2,4-DIOXOTETRAHYDROPYRIMIDINYL DERATIVES AS DEGRONS IN PROTACS” (GLAXOSMITHKLINE INTELLECTUAL PROPERTY DEVELOPMENT LIMITED, priority 2022, published 2025) can be followed below.

Counter-ions that a name gives are not always drawn. Where only a bound is given, the exact number is not on record here.

The first assay deals with T1, Androgen Receptor (Homo sapiens, UniProt P10275, T878A).
T1 construct: the AR gene was modified, using CRISPR/Cas9 editing, so the expressed AR protein included an 11 amino acid HiBiT tag; endogenous in cells; host or cells: clonal LnCaP-derived line, AR gene edited by CRISPR/Cas9
T1 sequence (P10275 whole entry T878A): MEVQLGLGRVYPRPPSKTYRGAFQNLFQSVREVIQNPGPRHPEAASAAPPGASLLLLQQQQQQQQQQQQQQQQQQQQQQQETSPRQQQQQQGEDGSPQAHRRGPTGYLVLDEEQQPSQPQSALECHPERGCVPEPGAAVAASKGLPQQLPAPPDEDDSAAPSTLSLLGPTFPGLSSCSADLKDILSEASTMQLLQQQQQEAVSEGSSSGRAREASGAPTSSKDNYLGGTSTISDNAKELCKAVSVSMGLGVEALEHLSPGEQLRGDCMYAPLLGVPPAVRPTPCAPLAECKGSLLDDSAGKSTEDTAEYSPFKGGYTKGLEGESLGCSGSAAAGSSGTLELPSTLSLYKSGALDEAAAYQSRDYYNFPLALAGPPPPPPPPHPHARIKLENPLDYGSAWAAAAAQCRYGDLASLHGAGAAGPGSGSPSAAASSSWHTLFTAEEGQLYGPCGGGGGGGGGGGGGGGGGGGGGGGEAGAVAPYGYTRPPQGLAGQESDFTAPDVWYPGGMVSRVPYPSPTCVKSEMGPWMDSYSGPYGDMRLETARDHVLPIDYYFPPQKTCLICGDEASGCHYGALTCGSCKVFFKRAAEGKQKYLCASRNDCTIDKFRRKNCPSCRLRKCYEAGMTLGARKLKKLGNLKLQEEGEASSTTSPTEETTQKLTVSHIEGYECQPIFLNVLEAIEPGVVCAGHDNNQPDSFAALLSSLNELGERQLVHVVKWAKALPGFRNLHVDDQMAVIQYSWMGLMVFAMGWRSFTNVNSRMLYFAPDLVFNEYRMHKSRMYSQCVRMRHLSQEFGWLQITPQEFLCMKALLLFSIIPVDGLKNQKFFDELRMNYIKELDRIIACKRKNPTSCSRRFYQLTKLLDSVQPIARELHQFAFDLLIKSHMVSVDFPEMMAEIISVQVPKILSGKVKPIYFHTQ
T1 sequence (Q96SW2 whole entry partner): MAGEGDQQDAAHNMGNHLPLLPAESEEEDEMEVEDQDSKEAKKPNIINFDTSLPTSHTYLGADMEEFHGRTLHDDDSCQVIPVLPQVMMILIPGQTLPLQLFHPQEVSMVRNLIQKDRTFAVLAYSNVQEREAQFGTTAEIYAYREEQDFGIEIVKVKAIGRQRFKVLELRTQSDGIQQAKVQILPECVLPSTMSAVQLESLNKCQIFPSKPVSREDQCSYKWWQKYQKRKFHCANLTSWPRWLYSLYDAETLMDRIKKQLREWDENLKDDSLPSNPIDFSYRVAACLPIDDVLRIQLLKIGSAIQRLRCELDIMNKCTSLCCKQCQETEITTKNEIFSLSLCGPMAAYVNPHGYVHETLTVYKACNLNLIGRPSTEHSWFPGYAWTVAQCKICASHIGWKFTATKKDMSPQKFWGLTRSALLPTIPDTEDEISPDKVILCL
T1 sequence (Q16531 whole entry partner): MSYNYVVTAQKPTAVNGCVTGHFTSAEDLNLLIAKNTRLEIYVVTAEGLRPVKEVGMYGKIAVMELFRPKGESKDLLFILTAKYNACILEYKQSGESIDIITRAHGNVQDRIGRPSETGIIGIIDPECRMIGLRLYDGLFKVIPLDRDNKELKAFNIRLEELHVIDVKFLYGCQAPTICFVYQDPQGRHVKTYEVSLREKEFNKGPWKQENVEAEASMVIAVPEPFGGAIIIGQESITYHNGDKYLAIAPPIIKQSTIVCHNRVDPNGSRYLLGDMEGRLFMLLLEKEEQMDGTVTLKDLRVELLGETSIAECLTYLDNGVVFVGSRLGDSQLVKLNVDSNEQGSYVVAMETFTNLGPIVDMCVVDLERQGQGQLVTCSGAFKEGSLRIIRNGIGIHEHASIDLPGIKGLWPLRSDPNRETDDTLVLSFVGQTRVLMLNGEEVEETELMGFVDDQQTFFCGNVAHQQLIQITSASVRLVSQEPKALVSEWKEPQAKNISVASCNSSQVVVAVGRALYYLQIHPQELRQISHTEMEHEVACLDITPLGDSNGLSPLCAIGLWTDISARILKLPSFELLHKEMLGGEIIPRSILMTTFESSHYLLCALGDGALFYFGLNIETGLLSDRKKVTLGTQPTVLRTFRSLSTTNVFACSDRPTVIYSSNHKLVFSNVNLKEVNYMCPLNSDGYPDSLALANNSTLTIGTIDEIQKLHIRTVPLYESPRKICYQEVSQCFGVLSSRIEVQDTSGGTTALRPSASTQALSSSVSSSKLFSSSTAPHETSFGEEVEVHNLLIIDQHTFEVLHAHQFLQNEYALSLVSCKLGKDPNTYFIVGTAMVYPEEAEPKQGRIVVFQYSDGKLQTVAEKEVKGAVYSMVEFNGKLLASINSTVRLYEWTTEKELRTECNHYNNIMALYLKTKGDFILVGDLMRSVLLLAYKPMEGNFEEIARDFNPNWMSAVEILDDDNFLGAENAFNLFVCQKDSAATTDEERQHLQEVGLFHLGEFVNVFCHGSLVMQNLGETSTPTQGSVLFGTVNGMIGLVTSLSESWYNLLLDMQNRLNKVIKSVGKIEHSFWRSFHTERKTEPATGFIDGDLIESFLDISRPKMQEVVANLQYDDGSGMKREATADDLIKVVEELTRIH
In words: Androgen Receptor Degradation Assay (Nano-Glo HiBiT). The assay is classed as cell-based. The note with it: HiBiT-tagged AR in human LnCaP cells, 18 h. The procedure, abridged:
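LnCaP cells with CRISPR-knocked-in N-terminal HiBiT-tagged AR (10,000/well) treated 18 h at 37 °C with PROTACs over 11 threefold concentrations; lytic HiBiT luminescence normalised to DMSO (0%) and cell-free (100%) controls. Relative DC50 = 4-parameter fit inflection; absolute DC50 = 50% degradation interpolation; Dmax = maximum observed degradation.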
For `CC(C)n1ccc2c(N3CCC(=O)NC3=O)cc(C(=O)N3CCN(CCC4CCN(c5ccc(NC(=O)N6C[C@H](C)N(c7ccc(C#N)c(Cl)c7)C[C@H]6C)cn5)CC4)CC3)cc21` [EAR 118, (2R,5S)-4-(3-Chloro-4-cyanophenyl)-N-(6-(4-(2-(4-(4-(2,4-dioxotetrahydropyrimidin-1(2H)-yl)-1-isopropyl-1H-indole-6-carbonyl)piperazin-1-yl)ethyl)piperidin-1-yl)pyridin-3-yl)-2,5-dimethylpiperazine-1-carboxamide], the “mean relative pDC50” value was 5.72.

Still in this assay, the particulars now being: LNCaP, 18 h, HiBiT-tagged AR in human LnCaP cells, read-out: mean asymptote max.
Regarding `N#Cc1ccc(O[C@H]2CC[C@H](NC(=O)c3ccc(N4CCO[C@@H](CN5CCC(n6ccc7c(N8CCC(=O)NC8=O)cccc76)CC5)C4)nn3)CC2)cc1Cl` [EAR125, N-((1r,4S)-4-(3-Chloro-4-cyanophenoxy)cyclohexyl)-6-((S)-2-((4-(4-(2,4-dioxotetrahydropyrimidin-1(2H)-yl)-1H-indol-1-yl)piperidin-1-yl)methyl)morpholino)pyridazine-3-carboxamide], the Dmax was not below 50%. In the case of `CC1(C)[C@H](NC(=O)c2ccc(N3CCC(CN4CCC(n5ccc6c(N7CCC(=O)NC7=O)cncc65)CC4)CC3)nc2)C(C)(C)[C@H]1Oc1ccc(C#N)c(Cl)c1` [EAR20, N-((1r,3r)-3-(3-Chloro-4-cyanophenoxy)-2,2,4,4-tetramethylcyclobutyl)-6-(4-((4-(4-(2,4-dioxotetrahydropyrimidin-1(2H)-yl)-1H-pyrrolo[2,3-c]pyridin-1-yl)piperidin-1-yl)methyl)piperidin-1-yl)nicotinamide], the Dmax was not below 50%.

For the compound `N#Cc1ccc(O[C@H]2CC[C@H](NC(=O)c3ccc(N4CCC(CN5CC[C@H](n6ccc7c(N8CCC(=O)NC8=O)cccc76)C5)CC4)nn3)CC2)cc1Cl` [EAR171, N-((1r,4r)-4-(3-Chloro-4-cyanophenoxy)cyclohexyl)-6-(4-(((R)-3-(4-(2,4-dioxotetrahydropyrimidin-1(2H)-yl)-1H-indol-1-yl)pyrrolidin-1-yl)methyl)piperidin-1-yl)pyridazine-3-carboxamide, hydrochloride], the Dmax was not below 50%. In the case of `N#Cc1ccc(O[C@H]2CC[C@H](NC(=O)c3ccc(N4CCC(CN5CCC(n6ccc7c(N8CCC(=O)NC8=O)ncnc76)CC5)CC4)cc3)CC2)cc1Cl` [EAR195, N-((1r,4r)-4-(3-chloro-4-cyanophenoxy)cyclohexyl)-4-(4-((4-(4-(2,4-dioxotetrahydropyrimidin-1(2H)-yl)-7H-pyrrolo[2,3-d]pyrimidin-7-yl)piperidin-1-yl)methyl)piperidin-1-yl)benzamide hydrochloride], the Dmax was not below 50%. Still for that read-out and setting: next, `N#Cc1ccc(O[C@H]2CC[C@H](NC(=O)c3cccc(OC4CCN(C(=O)CN5CCC(n6ccc7c(N8CCC(=O)NC8=O)cccc76)CC5)CC4)c3)CC2)cc1Cl` [AR2, N-((1r,4r)-4-(3-Chloro-4-cyanophenoxy)cyclohexyl)-3-((1-(2-(4-(4-(2,4-dioxotetrahydropyrimidin-1(2H)-yl)-1H-indol-1-yl)piperidin-1-yl)acetyl)piperidin-4-yl)oxy)benzamide]: not below 50%. For `CC(C)n1ccc2c(N3CCC(=O)NC3=O)cc(C(=O)N3CCN(CC4CCN(c5ccc(C(=O)N[C@H]6C(C)(C)[C@H](Oc7ccc(C#N)c(Cl)c7)C6(C)C)nn5)CC4)CC3)cc21` [EAR78, N-((1r,3r)-3-(3-Chloro-4-cyanophenoxy)-2,2,4,4-tetramethylcyclobutyl)-6-(4-((4-(4-(2,4-dioxotetrahydropyrimidin-1(2H)-yl)-1-isopropyl-1H-indole-6-carbonyl)piperazin-1-yl)methyl)piperidin-1-yl)pyridazine-3-carboxamide], the Dmax is not below 50%.

As for `N#Cc1ccc(O[C@H]2CC[C@H](NC(=O)c3ccc(N4CCC(N5CCC(Cn6ccc7c(N8CCC(=O)NC8=O)cccc76)CC5)CC4)nn3)CC2)cc1Cl` [EAR27, N-((1r,4r)-4-(3-Chloro-4-cyanophenoxy)cyclohexyl)-6-(4-((4-(2,4-dioxotetrahydropyrimidin-1(2H)-yl)-1H-indol-1-yl)methyl)-[1,4′-bipiperidin]-1′-yl)pyridazine-3-carboxamide hydrochloride], the Dmax is not below 50%.

Take `N#Cc1ccc(O[C@H]2CC[C@H](NC(=O)c3ccc(N4CCC[C@@H](CN5CCC(n6ccc7c(N8CCC(=O)NC8=O)cccc76)CC5)C4)nn3)CC2)cc1Cl` [EAR143, N-((1r,4R)-4-(3-chloro-4-cyanophenoxy)cyclohexyl)-6-((S)-3-((4-(4-(2,4-dioxotetrahydropyrimidin-1(2H)-yl)-1H-indol-1-yl)piperidin-1-yl)methyl)piperidin-1-yl)pyridazine-3-carboxamide]: the Dmax was not below 50%. On the same count and under the same terms, for `CC(C)n1ccc2c(N3CCC(=O)NC3=O)cc(C(=O)N(C)CC3CCN(C4CCN(c5ccc(N6C(=S)N(c7ccc(C#N)c(C(F)(F)F)c7)C(=O)C6(C)C)cc5)CC4)CC3)cc21` [EAR88, N-((1′-(4-(3-(4-Cyano-3-(trifluoromethyl)phenyl)-5,5-dimethyl-4-oxo-2-thioxoimidazolidin-1-yl)phenyl)-[1,4′-bipiperidin]-4-yl)methyl)-4-(2,4-dioxotetrahydropyrimidin-1(2H)-yl)-1-isopropyl-N-methyl-1H-indole-6-carboxamide formate] the value was not below 50%; for `N#Cc1ccc(O[C@H]2CC[C@H](NC(=O)c3ccc(N4CCC(OCCN5CCC(n6ncc7c(N8CCC(=O)NC8=O)cccc76)CC5)CC4)nn3)CC2)cc1Cl` [EAR231, N-((1r,4r)-4-(3-chloro-4-cyanophenoxy)cyclohexyl)-6-(4-(2-(4-(4-(2,4-dioxotetrahydropyrimidin-1(2H)-yl)-1H-indazol-1-yl)piperidin-1-yl)ethoxy)piperidin-1-yl)pyridazine-3-carboxamide], not below 50%. Consider `CC(C)n1ccc2c(N3CCC(=O)NC3=O)cc(C(=O)N3CCN(CCC4CCN(c5ccc(NC(=O)N6C[C@H](C)N(c7ccc(C#N)c(Cl)c7)C[C@H]6C)cn5)CC4)CC3)cc21` [EAR 118, (2R,5S)-4-(3-Chloro-4-cyanophenyl)-N-(6-(4-(2-(4-(4-(2,4-dioxotetrahydropyrimidin-1(2H)-yl)-1-isopropyl-1H-indole-6-carbonyl)piperazin-1-yl)ethyl)piperidin-1-yl)pyridin-3-yl)-2,5-dimethylpiperazine-1-carboxamide], for which the Dmax was not below 50%. Take `N#Cc1ccc(O[C@H]2CC[C@H](NC(=O)c3ccc(N4CCC(CCN5CCC(n6ccc7c(N8CCC(=O)NC8=O)cccc76)CC5)CC4)nn3)CC2)cc1Cl` [EAR57, N-((1r,4r)-4-(3-Chloro-4-cyanophenoxy)cyclohexyl)-6-(4-(2-(4-(4-(2,4-dioxotetrahydropyrimidin-1(2H)-yl)-1H-indol-1-yl)piperidin-1-yl)ethyl)piperidin-1-yl)pyridazine-3-carboxamide hydrochloride]: the Dmax is not below 50%. `N#Cc1ccc(O[C@H]2CC[C@H](NC(=O)c3cnc(N4CCC(CN5CCC(n6ccc7c(N8CCC(=O)NC8=O)cccc76)CC5)CC4)nc3)CC2)cc1Cl` [AR10, N-((1r,4r)-4-(3-Chloro-4-cyanophenoxy)cyclohexyl)-2-(4-((4-(4-(2,4-dioxotetrahydropyrimidin-1(2H)-yl)-1H-indol-1-yl)piperidin-1-yl)methyl)piperidin-1-yl)pyrimidine-5-carboxamide]: the Dmax was not below 50%. With `N#Cc1ccc(O[C@H]2CC[C@H](NC(=O)c3ccc(N4CCC(CN5CCC(n6ccc7c(N8CCC(=O)NC8=O)cncc76)CC5)CC4)nn3)CC2)cc1C(F)(F)F` [EAR45, N-((1r,4r)-4-(4-Cyano-3-(trifluoromethyl)phenoxy)cyclohexyl)-6-(4-((4-(4-(2,4-dioxotetrahydropyrimidin-1(2H)-yl)-1H-pyrrolo[2,3-c]pyridin-1-yl)piperidin-1-yl)methyl)piperidin-1-yl)pyridazine-3-carboxamide], the Dmax was not below 50%. In the case of `N#Cc1ccc(O[C@H]2CC[C@H](NC(=O)c3cnc(N4CCC(CN5CCC(n6ncc7c(N8CCC(=O)NC8=O)c(F)ccc76)CC5)CC4)cn3)CC2)cc1C(F)(F)F` [EAR189, N-((1r,4r)-4-(4-Cyano-3-(trifluoromethyl)phenoxy)cyclohexyl)-5-(4-((4-(4-(2,4-dioxotetrahydropyrimidin-1(2H)-yl)-5-fluoro-1H-indazol-1-yl)piperidin-1-yl)methyl)piperidin-1-yl)pyrazine-2-carboxamide hydrochloride], the Dmax was not below 50%. `N#Cc1ccc(O[C@H]2CC[C@H](NC(=O)c3ccc(N4CCC(CN5CCC(n6ccc7c(N8CCC(=O)NC8=O)nc(Cl)nc76)CC5)CC4)nn3)CC2)cc1Cl` [EAR175, 6-(4-((4-(2-Chloro-4-(2,4-dioxotetrahydropyrimidin-1(2H)-yl)-7H-pyrrolo[2,3-d]pyrimidin-7-yl)piperidin-1-yl)methyl)piperidin-1-yl)-N-((1r,4r)-4-(3-chloro-4-cyanophenoxy)cyclohexyl)pyridazine-3-carboxamide]: the Dmax is not below 50%.

`N#Cc1ccc(O[C@H]2CC[C@H](NC(=O)c3ccc(N4CCC(CN5CCC(n6ncc7c(N8CCC(=O)NC8=O)cccc76)CC5)CC4)nc3)CC2)cc1Cl` [EAR42, N-((1r,4r)-4-(3-Chloro-4-cyanophenoxy)cyclohexyl)-6-(4-((4-(4-(2,4-dioxotetrahydropyrimidin-1(2H)-yl)-1H-indazol-1-yl)piperidin-1-yl)methyl)piperidin-1-yl)nicotinamide hydrochloride]: the Dmax was not below 50%. The same measure, in the same setting: for `CC(C)n1ccc2c(N3CCC(=O)NC3=O)cc(C(=O)N3CCN(CC4CCN(c5ncc(NC(=O)N6C[C@H](C)N(c7ccc(C#N)c(Cl)c7)C[C@H]6C)cn5)CC4)CC3)cc21` [EAR107, (2R,5S)-4-(3-Chloro-4-cyanophenyl)-N-(2-(4-((4-(4-(2,4-dioxotetrahydropyrimidin-1(2H)-yl)-1-isopropyl-1H-indole-6-carbonyl)piperazin-1-yl)methyl)piperidin-1-yl)pyrimidin-5-yl)-2,5-dimethylpiperazine-1-carboxamide] the value was not below 50%. Take `N#Cc1ccc(O[C@H]2CC[C@H](NC(=O)c3ccc(N4CCC(CN5CCC(n6ncc7c(N8CCC(=O)NC8=O)cccc76)CC5)CC4)nc3)CC2)cc1C(F)(F)F` [EAR40, N-((1r,4r)-4-(4-Cyano-3-(trifluoromethyl)phenoxy)cyclohexyl)-6-(4-((4-(4-(2,4-dioxotetrahydropyrimidin-1(2H)-yl)-1H-indazol-1-yl)piperidin-1-yl)methyl)piperidin-1-yl)nicotinamide hydrochloride]: the Dmax was not below 50%.
